Values quoted from earlier work, collected in patent EP1479382A1, “Oral pharmaceutical compositions containing taxanes and methods for treatment employing the same” (IVAX Research, Inc., priority 1999, dated 2000).
Like-named read-outs stand apart in the source and are kept apart here.

SMILES: CC(=O)O[C@H]1C(=O)[C@@]2(C)[C@H]([C@H](OC(=O)c3ccccc3)[C@]3(O)C[C@H](OC(=O)[C@H](O)[C@@H](NC(=O)c4ccccc4)c4ccccc4)C(C)=C1C3(C)C)[C@]1(OC(C)=O)CO[C@@H]1C[C@@H]2O [paclitaxel]
- inhibition of tubulin disassembly occurs at levels of (tubulin): about 0.1 µM
- inhibition of tubulin disassembly occurs at levels of (tubulin; same level expressed in ng/ml): about 85 ng/ml
- inhibition of protein isoprenylation occurs at levels of (protein isoprenylation): about 0.03 µM
- inhibition of protein isoprenylation occurs at levels of (protein isoprenylation; same level expressed in ng/ml): about 25 ng/ml
